Measurements taken from publication PMC9077470 (RSC Advances, 2018).
Converted amounts (≈) assume the structure as drawn.

Tests used:
[1] = In vivo incubation in the colon of rats; conditions: injected into tied rat colon, 6 h
Experimental: 6 hours later, rats were sacrificed and their colon contents were separated and homogenized in 40 mL of phosphate buffer (pH 7.4). The homogenate was sonicated for 5 min and centrifuged at 13 000 rpm for 5 min, then 0.2 mL of the supernatant was collected and mixed with 0.8 mL of methanol. Finally, samples were centrifuged, filtered and analyzed by HPLC. The residual contents of each prodrug in colon contents were calculated, and the hydrolysis ratio was calculated by the following equation: [drawing 2] where Wr is the residual amount of prodrugs in the colon contents and Wi is the initial amount of prodrugs that administered to rats.

[2] = In vitro incubation with stomach contents of rats; type: in vitro ADME; conditions: rat stomach contents homogenate, pH 1.2, 37 °C, after 2 h of incubation
Experimental: (§1) After anesthetized with diethyl ether, rats were sacrificed and their contents of stomach and small intestine were collected and homogenized respectively, the homogenate was diluted with buffer solution (pH 1.2 for stomach contents, pH 6.8 for small intestine contents) to 20% (w/v). […] After 0.25, 0.5, 1.0, 1.5, 2.0, 3.0 and 4.0 h of incubation, 200 μL of samples were collected and replaced with the same volume of blank homogenate, then samples were centrifuged at 13 000 rpm for 5 min, filtered with membrane filter, and analyzed by HPLC. The residual contents of each prodrug in homogenate were calculated and the hydrolysis curves were drawn.

[3] = system: TNBS-induced experimental colitis; experiment: TNBS-induced colitis: disease activity index (DAI); type: in vivo, mice; conditions: for DAI, compared with positive control: vs positive control (5-ASA + sodium butyrate)
Experimental: Colitis was induced according to the previous study.[18,19] Briefly, after 12 h of fasting, mice were anesthetized with intraperitoneal pentobarbital sodium (35 mg kg^-1) before the induction of colitis. 0.1 mL of 50% (v/v) ethanol contained 2.5% (v/v) TNBS was instilled into the colon 3.5-4 cm from the anus by a gavage needle. The mice were kept in a head-down position for 30 s to prevent leakage of the intracolonic instillation. Mice in the control group received normal saline instead of TNBS solution, a physical mixture of 5-ASA and sodium butyrate was used as the positive control. […] The treatments were given once daily for 5 continuous days starting 24 hours after the induction of colitis. DAI is ranged from 0 to 4 and it is the sum of scores given for body weight loss, stool consistency and presence or absence of fecal blood. The fecal occult blood of mice was evaluated by the ο-tolidine method.[22] A small amount of feces samples were smeared on a white plate. 2-3 drops of ο-tolidine solution (10 g L^-1, dissolved in acetic acid) were added into samples and mixed evenly. Then 2-3 drops of 3% H2O2 solution were added into the mixture, meanwhile, start the time and observe immediately. Scored as: normal, weak positive, green to light green developing over 2 min; +, positive, greenish-blue to deep green developing within 1 min; ++, positive, blue to bluish-green developing within 5-20 s; +++, very strong positive, intense blue color developing immediately.[23]

[4] = system: MPO activity in colonic tissues; experiment: TNBS-induced colitis: MPO activity in colonic tissues; type: in vivo, mice; conditions: for MPO activity in colonic tissues: vs TNBS group, p < 0.01; for MPO activity, compared with positive control: vs positive control
Experimental: Colitis was induced according to the previous study.[18,19] Briefly, after 12 h of fasting, mice were anesthetized with intraperitoneal pentobarbital sodium (35 mg kg^-1) before the induction of colitis. 0.1 mL of 50% (v/v) ethanol contained 2.5% (v/v) TNBS was instilled into the colon 3.5-4 cm from the anus by a gavage needle. The mice were kept in a head-down position for 30 s to prevent leakage of the intracolonic instillation. Mice in the control group received normal saline instead of TNBS solution, a physical mixture of 5-ASA and sodium butyrate was used as the positive control. […] The treatments were given once daily for 5 continuous days starting 24 hours after the induction of colitis. […] Samples were freeze-thawed three times, after which sonication was repeated. Homogenates were then centrifuged at 13 000 rpm for 30 min and MPO was extracted from the resulting supernatant.[25] MPO activity was measured by the assay kit according to its provider's instructions.

[5] = In vitro incubation with small intestine contents of rats; type: in vitro ADME; conditions: rat small intestine contents homogenate, pH 6.8, 37 °C, after 4 h of incubation
Experimental: as §1

[6] = system: SOD, MDA, GSH, GSH-Px in colonic tissues; experiment: TNBS-induced colitis: levels of SOD, MDA, GSH and GSH-Px in colonic tissues; type: in vivo, mice; conditions: for GSH-Px activities in the colon / MDA levels in the colon / SOD activities in the colon / levels of GSH in the colon: vs TNBS group; for GSH-Px activities in the colon / MDA levels in the colon / SOD activities in the colon / levels of GSH in the colon / effect on decreasing the MDA level, compared with positive control: p < 0.01; for effect on increasing GSH, compared with positive control / effect on increasing GSH-Px, compared with positive control / effect on increasing SOD, compared with positive control / effect on decreasing the MDA level, compared with positive control: vs positive control
Experimental: Colitis was induced according to the previous study.[18,19] Briefly, after 12 h of fasting, mice were anesthetized with intraperitoneal pentobarbital sodium (35 mg kg^-1) before the induction of colitis. 0.1 mL of 50% (v/v) ethanol contained 2.5% (v/v) TNBS was instilled into the colon 3.5-4 cm from the anus by a gavage needle. The mice were kept in a head-down position for 30 s to prevent leakage of the intracolonic instillation. Mice in the control group received normal saline instead of TNBS solution, a physical mixture of 5-ASA and sodium butyrate was used as the positive control. […] The treatments were given once daily for 5 continuous days starting 24 hours after the induction of colitis. Colon tissue samples were homogenized with normal saline, the homogenate (10%, w/w) was centrifuged at 13 000 rpm for 15 min, and the resulting supernatant was diluted to 1% (w/w) for further assay. The protein levels of the colon homogenate were detected by a BCA protein assay kit. Then the activities of SOD and GSH-Px, and the levels of MDA and GSH of samples in each group were measured by the assay kits according to the provider's instructions.

[7] = Aqueous solubility (equilibrium, distilled water); type: physicochemical; conditions: 25 °C, thermodynamic from solid, 25 ± 2 °C, means ± SD, n = 3, read-out: S (aqueous solubility)
Experimental: The mixtures were placed in an ultrasonic water bath for 10 min and then shaken for 24 h to establish a saturation equilibrium. Upon filtration, the filtrate was diluted with an appropriate amount of water and the mixture was analyzed by HPLC, the concentration of each compound in its saturated solution was calculated.

hydrolysis ratio after in vivo incubation in rat colons [1] | residual content of prodrug in stomach contents [2] | residual content of prodrug in small intestine contents [5] [%] | solubility at 24 h [7] [mg/mL] | Structure (SMILES) | DAI, compared with positive control [3] | MPO activity in colonic tissues [4] | MPO activity, compared with positive control [4] | GSH-Px activities in the colon [6] | MDA levels in the colon [6] | SOD activities in the colon [6] | levels of GSH in the colon [6] | effect on increasing GSH, compared with positive control [6] | effect on increasing GSH-Px, compared with positive control [6] | effect on increasing SOD, compared with positive control [6] | effect on decreasing the MDA level, compared with positive control [6] | DAI ([3]; TNBS colitis mice, once daily 5 days, equivalent to 100 mg kg^−1 5-ASA, course after treatment)
almost hydrolyzed completely | 57.5% | 90.4 | 190 ± 40 (≈ 260 mM) | CCCC(=O)OCC(COC(=O)CCC)OC(=O)c1cc(N=Nc2ccc(O)c(C(=O)OC(COC(=O)CCC)COC(=O)CCC)c2)ccc1O [Ols-DBP] | better effects than the positive control | significantly decreased | significantly better than the positive control | increased | significantly decreased | increased | significantly higher | significantly greater effects | significantly greater effects | significantly greater effects | significantly greater effects | –
almost hydrolyzed completely | almost completely decomposed | 5.5 | 270 ± 30 (≈ 610 mM) | CCCC(=O)Oc1ccc(N=Nc2ccc(OC(=O)CCC)c(C(=O)O)c2)cc1C(=O)O [Ols-DB, 3,3′-azobis(6-hydroxybenzoicacid)dibutyrate] | better effects than the positive control | significantly decreased | significantly better than the positive control | increased | significantly decreased | increased | significantly higher | – | – | – | – | most significant effects in the first 4 days
almost hydrolyzed completely | 63.3% | 94.7 | 80 ± 20 (≈ 218 mM) | CCCC(=O)OCC(COC(=O)CCC)OC(=O)c1cc(N)ccc1O [5-ASDB, 2-(1,3-dibutyroxypropyl)-5-aminosalicylate] | better effects than the positive control | significantly decreased | significantly better than the positive control | increased | significantly decreased | increased | significantly higher | significantly greater effects | significantly greater effects | significantly greater effects | significantly greater effects | –
